Drawing on patent US12371428B2 (Exelixis, Inc., priority 2019, dated 2025), this text covers IC50 for 15 compounds.

Format in all cases: cell-based
The target in assay [1] is KDR (phospho-KDR, VEGF165-stimulated HUVEC cells) (Homo sapiens (Human), UniProt P35968). The assay can be described thus: KDR autophosphorylation ELISA in HUVEC cells (Example G). Conditions: cellular activity; KDR autophosphorylation ELISA in HUVEC cells. The essentials:
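HUVEC cells, serum-starved 24 h, were treated 1 h with an 8-point compound dilution (0.3% DMSO) and then stimulated with 100 ng/mL VEGF165 for 5 min. Phospho-KDR in lysates was quantified by sandwich ELISA against a phospho-KDR standard. IC50 from a 4-parameter logistic fit, normalised between stimulated DMSO and unstimulated controls.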
A general note: ELISA stands for enzyme-linked immunosorbent assay.

The target of assay [2] is AXL (phospho-AXL, Gas6-stimulated A-172 glioblastoma cells) (Homo sapiens (Human), UniProt P30530). In words: AXL autophosphorylation ELISA in A-172 cells (Example E). Conditions: cellular activity; AXL autophosphorylation ELISA in A-172 cells; read-out: Axl IC50. The essentials: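 Phospho-AXL in lysates was quantified by ELISA, normalised to DMSO (100%) and reference inhibitor (0%) controls. IC50 by 4-parameter logistic fit.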
Chain of AXL (phospho-AXL, Gas6-stimulated A-172 glioblastoma cells) (P30530 26-894): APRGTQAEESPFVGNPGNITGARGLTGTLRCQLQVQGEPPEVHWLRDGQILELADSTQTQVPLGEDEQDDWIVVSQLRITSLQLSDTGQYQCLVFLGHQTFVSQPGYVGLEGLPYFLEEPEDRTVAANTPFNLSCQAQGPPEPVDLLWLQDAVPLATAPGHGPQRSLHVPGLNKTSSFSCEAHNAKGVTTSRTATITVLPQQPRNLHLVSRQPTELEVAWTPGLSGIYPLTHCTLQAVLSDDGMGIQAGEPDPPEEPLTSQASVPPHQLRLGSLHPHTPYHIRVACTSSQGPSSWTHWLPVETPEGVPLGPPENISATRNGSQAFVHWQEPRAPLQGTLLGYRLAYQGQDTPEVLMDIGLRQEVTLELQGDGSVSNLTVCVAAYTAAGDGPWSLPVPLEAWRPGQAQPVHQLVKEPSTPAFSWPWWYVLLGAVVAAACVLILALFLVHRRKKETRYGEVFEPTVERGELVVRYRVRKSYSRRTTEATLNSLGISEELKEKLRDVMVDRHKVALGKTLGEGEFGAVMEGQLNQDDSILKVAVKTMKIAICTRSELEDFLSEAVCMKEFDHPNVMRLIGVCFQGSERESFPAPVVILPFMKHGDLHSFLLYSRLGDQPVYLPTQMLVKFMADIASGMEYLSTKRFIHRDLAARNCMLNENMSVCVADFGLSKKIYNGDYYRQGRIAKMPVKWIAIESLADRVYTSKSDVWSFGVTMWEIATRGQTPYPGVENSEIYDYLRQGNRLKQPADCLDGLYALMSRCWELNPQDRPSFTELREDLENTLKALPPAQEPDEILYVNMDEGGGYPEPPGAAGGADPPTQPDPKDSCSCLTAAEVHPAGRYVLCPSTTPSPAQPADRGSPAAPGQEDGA

The target in assay [3] is Mer (phospho-Mer, MERTK-transfected 293A cells) (Homo sapiens (Human), UniProt Q12866). In words: Mer autophosphorylation ELISA in transient transfected 293A cells (Example H). Conditions: cellular activity; Mer autophosphorylation ELISA in transient transfected 293A cells. Put shortly:
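Human MERTK transiently transfected into 293A cells; compounds as 8-point dose curve in serum-free medium (0.3% DMSO final), 1 h. Lysates assayed by phospho-Mer sandwich ELISA against phospho-Mer standard; DMSO = 100%, reference inhibitor = 0% activity; IC50 from 4-parameter logistic fit.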

Assay [4] deals with Met (phospho-Met, HGF-stimulated PC-3 prostate cancer cells) (Homo sapiens (Human), UniProt P08581). The assay can be described thus: Met autophosphorylation ELISA in PC-3 cells (Example F). Particulars: cellular activity; Met autophosphorylation ELISA in PC-3 cells; read-out: c-Met IC50. Put shortly:
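Serum-starved (3 h) PC-3 cells were treated 1 h with compounds (8-point curve, 0.3% DMSO), then stimulated with 100 ng/mL human HGF for 10 min. Lysate phospho-Met (panTyr) was measured by sandwich ELISA, normalised to DMSO and reference-inhibitor controls. IC50 came from 4-parameter logistic fit.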

Chain of KDR (phospho-KDR, VEGF165-stimulated HUVEC cells) (P35968 20-1356): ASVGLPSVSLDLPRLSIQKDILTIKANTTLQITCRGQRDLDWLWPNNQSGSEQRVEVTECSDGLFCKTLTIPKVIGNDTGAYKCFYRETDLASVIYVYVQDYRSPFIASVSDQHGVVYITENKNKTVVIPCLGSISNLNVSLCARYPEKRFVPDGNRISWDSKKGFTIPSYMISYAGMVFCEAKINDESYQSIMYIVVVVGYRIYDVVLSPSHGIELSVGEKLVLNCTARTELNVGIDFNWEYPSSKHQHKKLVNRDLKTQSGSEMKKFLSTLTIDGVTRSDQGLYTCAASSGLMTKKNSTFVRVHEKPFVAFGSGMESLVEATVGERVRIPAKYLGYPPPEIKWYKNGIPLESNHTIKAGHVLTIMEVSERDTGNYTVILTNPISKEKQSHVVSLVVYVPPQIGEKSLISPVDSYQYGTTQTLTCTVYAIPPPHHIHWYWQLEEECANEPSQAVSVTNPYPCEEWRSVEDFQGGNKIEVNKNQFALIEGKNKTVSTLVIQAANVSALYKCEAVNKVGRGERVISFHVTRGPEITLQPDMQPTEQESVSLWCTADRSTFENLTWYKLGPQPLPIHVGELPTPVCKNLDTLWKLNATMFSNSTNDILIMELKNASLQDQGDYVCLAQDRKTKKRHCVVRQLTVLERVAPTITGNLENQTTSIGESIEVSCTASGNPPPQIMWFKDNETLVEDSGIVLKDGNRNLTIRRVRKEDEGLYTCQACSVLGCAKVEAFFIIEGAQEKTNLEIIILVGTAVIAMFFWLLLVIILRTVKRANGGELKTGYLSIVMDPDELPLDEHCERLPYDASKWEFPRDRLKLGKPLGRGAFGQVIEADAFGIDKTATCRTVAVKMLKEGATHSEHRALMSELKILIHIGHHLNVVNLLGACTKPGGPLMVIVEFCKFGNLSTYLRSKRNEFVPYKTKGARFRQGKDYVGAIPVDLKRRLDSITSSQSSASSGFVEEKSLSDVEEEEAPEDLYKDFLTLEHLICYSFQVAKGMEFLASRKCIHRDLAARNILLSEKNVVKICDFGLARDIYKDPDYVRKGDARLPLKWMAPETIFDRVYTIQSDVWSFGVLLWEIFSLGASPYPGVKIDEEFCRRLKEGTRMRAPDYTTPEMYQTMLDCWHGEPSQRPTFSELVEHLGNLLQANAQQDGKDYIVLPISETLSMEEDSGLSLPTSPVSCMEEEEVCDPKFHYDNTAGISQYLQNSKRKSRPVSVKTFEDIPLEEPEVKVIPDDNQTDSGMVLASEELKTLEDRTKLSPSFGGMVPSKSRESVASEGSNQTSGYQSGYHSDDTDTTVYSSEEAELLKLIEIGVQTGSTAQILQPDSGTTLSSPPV
Chain of Met (phospho-Met, HGF-stimulated PC-3 prostate cancer cells) (P08581 25-1390): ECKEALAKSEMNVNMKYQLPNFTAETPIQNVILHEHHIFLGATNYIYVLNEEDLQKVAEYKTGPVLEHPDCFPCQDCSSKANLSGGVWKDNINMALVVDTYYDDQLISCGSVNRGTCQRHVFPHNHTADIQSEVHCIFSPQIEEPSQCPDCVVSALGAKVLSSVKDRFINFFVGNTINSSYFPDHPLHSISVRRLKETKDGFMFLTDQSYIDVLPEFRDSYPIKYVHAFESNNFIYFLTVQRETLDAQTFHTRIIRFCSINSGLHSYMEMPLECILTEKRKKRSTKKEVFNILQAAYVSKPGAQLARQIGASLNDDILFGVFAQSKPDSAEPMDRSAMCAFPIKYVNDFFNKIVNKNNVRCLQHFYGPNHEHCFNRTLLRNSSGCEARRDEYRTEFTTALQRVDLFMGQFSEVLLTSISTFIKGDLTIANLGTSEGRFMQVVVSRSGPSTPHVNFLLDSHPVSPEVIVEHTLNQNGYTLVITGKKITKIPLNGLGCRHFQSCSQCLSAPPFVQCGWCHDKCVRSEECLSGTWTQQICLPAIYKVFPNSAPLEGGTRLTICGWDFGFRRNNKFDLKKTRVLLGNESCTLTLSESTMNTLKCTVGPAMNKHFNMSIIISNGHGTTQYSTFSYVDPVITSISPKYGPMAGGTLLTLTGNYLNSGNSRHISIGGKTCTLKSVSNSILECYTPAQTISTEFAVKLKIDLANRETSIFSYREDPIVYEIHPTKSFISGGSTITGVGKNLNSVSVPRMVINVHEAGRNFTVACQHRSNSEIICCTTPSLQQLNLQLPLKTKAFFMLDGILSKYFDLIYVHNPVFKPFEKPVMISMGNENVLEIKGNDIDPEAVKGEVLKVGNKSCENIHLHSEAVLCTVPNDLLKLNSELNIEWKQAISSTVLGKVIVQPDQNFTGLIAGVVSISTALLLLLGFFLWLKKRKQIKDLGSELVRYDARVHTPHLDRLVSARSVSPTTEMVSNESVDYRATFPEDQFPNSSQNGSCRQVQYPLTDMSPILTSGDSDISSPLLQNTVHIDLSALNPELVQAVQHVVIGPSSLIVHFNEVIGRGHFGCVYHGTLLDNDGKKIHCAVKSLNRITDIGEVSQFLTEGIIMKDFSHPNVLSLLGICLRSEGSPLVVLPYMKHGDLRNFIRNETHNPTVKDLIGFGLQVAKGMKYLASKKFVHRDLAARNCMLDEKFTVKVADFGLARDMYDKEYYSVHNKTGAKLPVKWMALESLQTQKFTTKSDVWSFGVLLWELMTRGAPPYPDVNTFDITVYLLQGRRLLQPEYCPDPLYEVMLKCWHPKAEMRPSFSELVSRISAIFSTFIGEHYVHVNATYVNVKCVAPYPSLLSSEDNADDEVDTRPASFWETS
Chain of Mer (phospho-Mer, MERTK-transfected 293A cells) (Q12866 21-999): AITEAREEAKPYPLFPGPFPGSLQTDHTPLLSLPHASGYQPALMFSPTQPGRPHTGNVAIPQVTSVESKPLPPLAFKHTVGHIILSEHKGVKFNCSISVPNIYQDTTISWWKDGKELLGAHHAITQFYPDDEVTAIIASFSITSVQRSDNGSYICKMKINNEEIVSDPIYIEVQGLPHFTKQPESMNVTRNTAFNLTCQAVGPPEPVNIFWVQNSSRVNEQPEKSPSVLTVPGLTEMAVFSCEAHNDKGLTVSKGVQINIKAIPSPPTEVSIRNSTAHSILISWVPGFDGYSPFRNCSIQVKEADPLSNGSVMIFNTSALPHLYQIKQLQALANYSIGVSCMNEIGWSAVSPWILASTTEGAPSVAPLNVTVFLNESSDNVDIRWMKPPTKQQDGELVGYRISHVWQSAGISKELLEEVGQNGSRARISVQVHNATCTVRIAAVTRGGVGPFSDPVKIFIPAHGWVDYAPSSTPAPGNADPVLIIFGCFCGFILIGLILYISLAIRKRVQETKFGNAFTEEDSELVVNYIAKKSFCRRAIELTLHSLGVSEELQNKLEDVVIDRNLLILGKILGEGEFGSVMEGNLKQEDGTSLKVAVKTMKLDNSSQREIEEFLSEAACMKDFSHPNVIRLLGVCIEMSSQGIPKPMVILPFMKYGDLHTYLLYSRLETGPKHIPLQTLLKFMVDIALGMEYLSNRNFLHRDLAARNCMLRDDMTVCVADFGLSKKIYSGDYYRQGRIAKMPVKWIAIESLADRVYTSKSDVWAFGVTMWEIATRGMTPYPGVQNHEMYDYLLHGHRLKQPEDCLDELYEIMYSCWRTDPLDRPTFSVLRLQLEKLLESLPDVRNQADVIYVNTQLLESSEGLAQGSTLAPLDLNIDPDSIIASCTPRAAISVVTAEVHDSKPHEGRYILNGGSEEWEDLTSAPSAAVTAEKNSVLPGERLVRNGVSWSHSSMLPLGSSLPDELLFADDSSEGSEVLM

Consider `COc1cnc2c(Oc3ccc(NC(=O)c4cn(C(F)F)c(C)c(-c5ccc(F)cc5)c4=O)cc3)ccnc2c1` [Compound 669, 1-(difluoromethyl)-5-(4-fluorophenyl)-N-[4-[(7-methoxy-1,5-naphthyridin-4-yl)oxy]phenyl]-6-methyl-4-oxopyridine-3-carboxamide], for which the half-inhibitory concentration (IC50) in assay [1] is over 300 nM; in assay [2], under 100 nM; in assay [3], under 100 nM; in assay [4], under 100 nM.
On to `CCOc1c(C(=O)Nc2ccc(Oc3ccnc4cc(OC)c(OC)nc34)c(F)c2)cnc(C)c1-c1ccc(F)cc1` [Compound 333, N-[4-[(6,7-dimethoxy-1,5-naphthyridin-4-yl)oxy]-3-fluorophenyl]-4-ethoxy-5-(4-fluorophenyl)-6-methylpyridine-3-carboxamide], for which the 50% inhibitory concentration (IC50) in assay [1] is 100 to 300 nM; in assay [2], under 100 nM; in assay [3], under 100 nM; in assay [4], under 100 nM.
For the compound `COc1nc2c(Oc3ccc(NC(=O)c4c(C)nc(C)n(-c5ccc(F)cc5)c4=O)cc3F)ccnc2cc1C` [Compound 468, N-[3-fluoro-4-[(6-methoxy-7-methyl-1,5-naphthyridin-4-yl)oxy]phenyl]-1-(4-fluorophenyl)-2,4-dimethyl-6-oxopyrimidine-5-carboxamide], the IC50 in assay [1], in assay [2], in assay [3] and in assay [4] was under 100 nM each time.
With `COc1cnc2c(Oc3ccc(NC(=O)c4c(C)c(Br)c(C)n(-c5ccc(F)cc5)c4=O)cc3)ccnc2c1` [Compound 312, 5-Bromo-1-(4-fluorophenyl)-N-[4-[(7-methoxy-1,5-naphthyridin-4-yl)oxy]phenyl]-4,6-dimethyl-2-oxopyridine-3-carboxamide], the IC50 in assay [1] was 100 to 300 nM; in assay [2], under 100 nM; in assay [3] it was under 100 nM; in assay [4] it was under 100 nM.
On to `COc1cnc2c(Oc3ccc(NC(=O)c4cc(C(C)=O)c(C)n(-c5ccc(F)cc5)c4=O)cc3F)ccnc2c1` [Compound 656, 5-acetyl-N-[3-fluoro-4-[(7-methoxy-1,5-naphthyridin-4-yl)oxy]phenyl]-1-(4-fluorophenyl)-6-methyl-2-oxopyridine-3-carboxamide], for which the IC50 in assay [1] was over 300 nM; in assay [2] it was under 100 nM; in assay [3] it was under 100 nM; in assay [4], under 100 nM.
As for `COc1cc2nccc(Oc3ccc(NC(=O)c4cn(C(C)(C)CO)cc(-c5ccc(F)cc5)c4=O)cc3F)c2cc1OC` [Compound 57, N-[4-(6,7-Dimethoxyquinolin-4-yl)oxy-3-fluorophenyl]-5-(4-fluorophenyl)-1-(1-hydroxy-2-methylpropan-2-yl)-4-oxopyridine-3-carboxamide], the half-maximal inhibitory concentration (IC50) was over 300 nM in assay [1], under 100 nM in assay [2], under 100 nM in assay [3] and under 100 nM in assay [4].
For `C=Cc1c(C)c(C(=O)Nc2ccc(Oc3ccnc4cc(OCCOC)c(OC)nc34)c(F)c2)c(=O)n(-c2ccc(F)cc2)c1C` [Compound 740, 5-ethenyl-N-[3-fluoro-4-[[6-methoxy-7-(2-methoxyethoxy)-1,5-naphthyridin-4-yl]oxy]phenyl]-1-(4-fluorophenyl)-4,6-dimethyl-2-oxopyridine-3-carboxamide], the half-inhibitory concentration (IC50) in assay [1], in assay [2], in assay [3] and in assay [4] was under 100 nM each time.
On to `COc1cc2nccc(Oc3ccc(NC(=O)c4c(C)c(C#N)c(C)n(-c5ccc(F)cc5)c4=O)cc3)c2nc1OC` [Compound 320, 5-Cyano-N-[4-[(6,7-dimethoxy-1,5-naphthyridin-4-yl)oxy]phenyl]-1-(4-fluorophenyl)-4,6-dimethyl-2-oxopyridine-3-carboxamide], for which the IC50 in assay [1] is over 300 nM; in assay [2] it was under 100 nM; in assay [3], under 100 nM; in assay [4], under 100 nM.
Take `COc1cc2c(Oc3ccc(NC(=O)c4cnc(C)n(-c5ccc(F)cc5)c4=O)cc3F)ccnc2cn1` [Compound 499, N-[3-fluoro-4-[(6-methoxy-1,7-naphthyridin-4-yl)oxy]phenyl]-1-(4-fluorophenyl)-2-methyl-6-oxopyrimidine-5-carboxamide]: the IC50 in assay [1] is 100 to 300 nM; in assay [2], under 100 nM; in assay [3], under 100 nM; in assay [4] it was under 100 nM.
With `COc1cnc2c(Oc3ccc(NC(=O)c4c(C)ncc(-c5ccc(F)c(F)c5)c4O)cc3F)ccnc2c1` [Compound 797, 5-(3,4-difluorophenyl)-N-[3-fluoro-4-[(7-methoxy-1,5-naphthyridin-4-yl)oxy]phenyl]-4-hydroxy-2-methylpyridine-3-carboxamide], the 50% inhibitory concentration (IC50) in assay [1], in assay [2], in assay [3] and in assay [4] was under 100 nM in each case.
For the compound `COc1cc2nccc(Oc3ccc(NC(=O)c4cn5c(c(-c6ccc(F)cc6C)c4=O)COCC5)cc3F)c2nc1OC` [Compound 766, N-[4-[(6,7-dimethoxy-1,5-naphthyridin-4-yl)oxy]-3-fluorophenyl]-9-(4-fluoro-2-methylphenyl)-8-oxo-3,4-dihydro-1H-pyrido[2,1-c][1,4]oxazine-7-carboxamide], the half-maximal inhibitory concentration (IC50) is over 300 nM in assay [1], under 100 nM in assay [2], under 100 nM in assay [3] and under 100 nM in assay [4].
As to `COc1cnc2c(Oc3ccc(NC(=O)c4c(C)nc(C)c(-c5ccc(F)c(C)c5)c4O)cc3F)ccnc2c1` [Compound 689, N-[3-fluoro-4-[(7-methoxy-1,5-naphthyridin-4-yl)oxy]phenyl]-5-(4-fluoro-3-methylphenyl)-4-hydroxy-2,6-dimethylpyridine-3-carboxamide], the concentration for half-maximal inhibition (IC50) in assay [1], in assay [2], in assay [3] and in assay [4] was under 100 nM throughout.
As to `COc1ccc(-c2c(C)nc(C)c(C(=O)Nc3ccc(Oc4ccnc5cc(OC)cnc45)c(F)c3)c2O)c(OC)c1` [Compound 695, 5-(2,4-dimethoxyphenyl)-N-[3-fluoro-4-[(7-methoxy-1,5-naphthyridin-4-yl)oxy]phenyl]-4-hydroxy-2,6-dimethylpyridine-3-carboxamide], the IC50 was under 100 nM in assay [1], over 300 nM in assay [2], under 100 nM in assay [3] and under 100 nM in assay [4].
Take `COCCOc1cnc2c(Oc3ccc(NC(=O)c4cc(C(C)=O)c(C)n(-c5ccc(F)cc5)c4=O)cc3F)ccnc2c1` [Compound 758, 5-acetyl-N-[3-fluoro-4-[[7-(2-methoxyethoxy)-1,5-naphthyridin-4-yl]oxy]phenyl]-1-(4-fluorophenyl)-6-methyl-2-oxopyridine-3-carboxamide]: the half-inhibitory concentration (IC50) was over 300 nM in assay [1], under 100 nM in assay [2], under 100 nM in assay [3] and under 100 nM in assay [4].
Turning to `COCc1nc(C)c(-c2ccc(F)cc2)c(O)c1C(=O)Nc1ccc(Oc2ccnc3cnc(OC)cc23)c(F)c1` [Compound 501, N-[3-Fluoro-4-[(6-methoxy-1,7-naphthyridin-4-yl)oxy]phenyl]-5-(4-fluorophenyl)-4-hydroxy-2-(methoxymethyl)-6-methylpyridine-3-carboxamide], the IC50 in assay [1], in assay [2], in assay [3] and in assay [4] was under 100 nM in each case.

A word on the IC50: it is the concentration that inhibits the measured activity by half.
